According to the supplement of paper PMC10307832:

What was measured:
Assay in all cases: relative viability (nuclei count vs DMSO), 5 days (fraction); higher = more cells survive
[1] = compound: C1=CC=C(C(=C1)C2=CC=C(C=C2)C3=CSC4=C3C(=C(C(=O)N4)C#N)O)O + NC(=O)Nc1cc(-c2cccc(F)c2)sc1C(=O)N[C@H]1CCCNC1 [AZD7762] (partner 0.2 µM)
Outline: (§1)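 Lung cancer cell lines in 1536-well plates got either a single drug or a fixed anchor-drug dose together with five library-drug doses (not always all listed) in √10 steps, by pin tool, on the day after seeding. Nuclei were counted after 5 days, and relative viability is the treated-to-vehicle ratio of nuclei counts. Values are medians of duplicate plates.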

[2] = compound: O=C(CCCCCCNC(=O)c1cnc(N(c2ccccc2)c2ccccc2)nc1)NO [Ricolinostat] + CC(=O)Nc1cccc(-n2c(=O)n(C3CC3)c(=O)c3c(Nc4ccc(I)cc4F)n(C)c(=O)c(C)c32)c1 [Trametinib] (partner 0.02 µM)
Outline: as §1

[3] = compound: C1=CC=C(C(=C1)C2=CC=C(C=C2)C3=CSC4=C3C(=C(C(=O)N4)C#N)O)O + CS(=O)(=O)CCNCc1ccc(-c2ccc3ncnc(Nc4ccc(OCc5cccc(F)c5)c(Cl)c4)c3c2)o1 [Lapatinib] (partner 2 µM)
Outline: as §1

Ricolinostat + Olaparib = compound: O=C(CCCCCCNC(=O)c1cnc(N(c2ccccc2)c2ccccc2)nc1)NO [Ricolinostat] + O=C(c1cc(Cc2n[nH]c(=O)c3ccccc23)ccc1F)N1CCN(C(=O)C2CC2)CC1 [Olaparib] (partner 8 µM)
Outline: as §1

Cell Line	relative viability ([1]; first compound 0.08 µM)	relative viability ([1]; first compound 0.253 µM)	relative viability ([1]; first compound 0.8 µM)	relative viability ([1]; first compound 2.53 µM)	relative viability ([1]; first compound 8 µM)	relative viability ([2]; first compound 0.253 µM)	relative viability ([2]; first compound 0.8 µM)	relative viability ([2]; first compound 2.53 µM)	relative viability ([3]; first compound 0.08 µM)	relative viability ([3]; first compound 0.253 µM)	relative viability ([3]; first compound 0.8 µM)	relative viability ([3]; first compound 2.53 µM)	relative viability ([3]; first compound 8 µM)	relative viability (Ricolinostat + Olaparib; first compound 0.253 µM)	relative viability (Ricolinostat + Olaparib; first compound 0.8 µM)	relative viability (Ricolinostat + Olaparib; first compound 2.53 µM)	relative viability ([2]; first compound 0.08 µM)	relative viability (Ricolinostat + Olaparib; first compound 0.08 µM)
LOU-NH91	0.79	0.804	0.745	0.733	0.701	0.783	0.763	0.864	0.751	0.807	0.788	0.601	0.738	0.883	0.905	0.858	–	–
LU99A	0.331	0.293	0.335	0.391	0.275	0.559	0.475	0.599	0.97	1.09	1.13	1.12	0.955	0.255	0.206	0.175	0.555	0.281
LXF-289	1.06	1.09	1.15	1.2	0.925	0.638	0.688	0.629	0.89	0.895	0.917	0.908	0.924	1.12	1.04	1.01	0.675	1.04
NCI-H23	0.232	0.168	0.239	0.229	0.229	0.414	0.428	0.406	1.36	1.09	1.19	1.08	0.843	0.278	0.27	0.275	0.445	0.351
NCI-H322M	0.599	0.6	0.522	0.639	0.64	0.539	0.611	0.564	0.621	0.616	0.569	0.563	0.589	0.879	0.807	0.907	0.431	0.664
NCI-H358	0.486	0.542	0.532	0.605	0.488	0.135	0.173	0.176	0.431	0.473	0.549	0.49	0.41	0.57	0.61	0.652	0.125	0.444
NCI-H460	0.579	0.68	0.604	0.611	0.585	0.169	0.184	0.0996	–	1.09	0.868	1.24	0.747	0.341	0.377	0.159	0.114	0.362
NCI-H596	0.862	1.09	1.21	1.18	0.986	0.751	0.785	0.904	0.866	1.17	1.16	0.999	1.02	0.676	0.693	0.526	0.818	0.699
NCI-H647	0.294	0.337	0.276	0.39	0.301	0.464	0.51	0.564	0.447	1.2	1.11	1.16	0.871	0.521	0.465	0.261	0.372	0.446
NCI-H650	0.911	1.04	1.17	1.02	0.817	0.908	0.909	0.874	0.625	1.09	0.742	1.09	0.763	0.34	0.278	0.22	0.853	0.376
NCI-H727	0.569	0.541	0.603	0.543	0.434	0.416	0.412	0.355	0.834	0.844	0.927	0.589	0.757	0.624	0.75	0.611	0.383	0.827
NCI-H838	0.914	0.923	1.02	0.875	0.839	0.546	0.548	0.375	0.659	1.11	0.973	0.887	0.872	0.788	0.787	0.404	0.495	0.802
NCI-H1355	0.693	0.899	0.739	0.763	0.752	0.43	0.346	0.412	0.949	0.966	1.1	0.81	0.999	0.723	0.707	0.688	0.411	0.647
NCI-H1395	–	0.397	0.395	0.353	0.419	0.957	1.08	1.2	–	0.87	1.05	0.974	0.965	0.44	0.479	0.433	–	–
NCI-H1437	1.1	1.27	1.12	1.22	1.15	0.502	0.392	0.356	0.72	0.794	0.772	0.891	0.527	0.595	0.598	0.409	0.458	0.628
NCI-H1651	0.496	0.454	0.428	0.479	0.334	0.794	0.83	0.835	0.697	0.799	0.78	0.821	0.683	0.174	0.184	0.164	0.768	0.194
NCI-H1666	0.807	0.894	0.8	0.796	0.706	0.869	0.84	0.879	0.667	0.826	0.577	0.427	0.59	0.709	0.695	0.829	0.872	0.708

Cell Line	relative viability ([1]; first compound 0.08 µM)	relative viability ([1]; first compound 0.253 µM)	relative viability ([1]; first compound 0.8 µM)	relative viability ([1]; first compound 2.53 µM)	relative viability ([1]; first compound 8 µM)	relative viability ([2]; first compound 0.253 µM)	relative viability ([2]; first compound 0.8 µM)	relative viability ([2]; first compound 2.53 µM)	relative viability ([3]; first compound 0.08 µM)	relative viability ([3]; first compound 0.253 µM)	relative viability ([3]; first compound 0.8 µM)	relative viability ([3]; first compound 2.53 µM)	relative viability ([3]; first compound 8 µM)	relative viability (Ricolinostat + Olaparib; first compound 0.253 µM)	relative viability (Ricolinostat + Olaparib; first compound 0.8 µM)	relative viability (Ricolinostat + Olaparib; first compound 2.53 µM)	relative viability ([2]; first compound 0.08 µM)	relative viability (Ricolinostat + Olaparib; first compound 0.08 µM)
NCI-H1734	0.573	0.511	0.559	0.594	0.459	0.629	0.682	0.785	1.09	1.05	1.16	1.01	0.887	0.642	0.601	0.324	0.582	0.61
NCI-H1755	0.44	0.466	0.572	0.435	0.377	0.678	0.814	0.779	0.938	1.11	0.875	1.11	1.1	0.809	0.814	0.739	0.694	0.826
NCI-H1793	0.401	0.411	0.473	0.53	0.432	0.389	0.435	0.444	0.583	0.765	0.825	0.701	0.598	0.825	0.903	0.902	0.327	0.692
NCI-H1915	0.657	0.754	0.696	0.697	0.649	0.31	0.309	0.3	0.835	1.04	0.924	1.15	0.882	0.237	0.248	0.201	0.261	0.255
NCI-H1944	0.67	0.537	0.696	0.469	0.603	0.469	0.442	0.407	0.69	0.853	0.883	0.67	0.788	0.369	0.308	0.296	0.46	0.404
NCI-H1975	0.665	0.746	0.606	0.736	0.633	0.368	0.33	0.326	0.756	1.01	0.832	0.895	0.766	0.768	0.713	0.643	0.374	0.85
NCI-H1993	0.812	0.841	0.811	0.74	0.646	0.583	0.564	0.665	0.889	0.814	0.764	0.869	0.782	0.875	1.02	0.892	0.5	0.883
NCI-H2085	0.891	1.06	0.86	1.02	0.997	0.491	0.516	0.513	0.608	0.841	0.677	0.685	0.671	0.734	0.764	0.791	–	–
NCI-H2087	1.58	1.2	1.25	1.41	0.75	0.188	0.173	0.233	1.05	1.11	1.01	1.19	1.04	0.588	0.671	0.357	0.211	0.502
NCI-H2126	1.01	1.09	0.973	1.1	0.763	0.548	0.564	0.52	0.737	0.748	0.728	0.766	0.834	0.889	0.93	0.851	0.531	0.789
NCI-H2170	0.898	0.722	0.875	0.842	0.548	0.879	0.985	0.973	0.267	0.276	0.278	0.279	0.286	0.507	0.625	0.539	0.921	0.569
NCI-H2347	0.692	0.79	0.758	0.694	0.739	0.304	0.276	0.459	0.844	1.17	0.889	0.916	0.932	0.604	0.612	0.586	0.298	0.51
NCI-H2405	0.661	–	0.752	0.635	0.686	0.682	0.666	0.82	1.01	1.12	1.11	0.984	1.04	0.858	0.814	0.937	0.591	0.705
NCI-H3122	0.985	0.987	0.995	1.03	0.917	0.256	0.248	0.313	1.05	1.17	1.06	1.06	1.02	0.618	0.54	0.55	0.221	0.571
PC-3 [JPC-3]	0.597	0.935	0.645	0.745	0.618	0.641	0.713	0.633	0.488	0.556	0.479	0.441	0.472	1.06	1.07	0.971	0.662	0.865
PC-14	0.316	0.272	0.332	0.363	0.24	0.789	0.666	0.417	0.287	0.38	0.3	0.256	0.269	0.257	0.267	0.199	0.733	0.265
RERF-LC-KJ	0.884	1.06	0.947	0.778	0.553	0.836	0.805	0.715	0.787	0.883	0.884	0.833	0.848	0.894	0.773	0.582	0.869	0.897
